# In patent US9643964B2, “3-(2-aminopyrimidin-4-yl)-5-(3-hydroxypropynyl)-1H-pyrrolo[2,3-C]pyridine derivatives as NIK inhibitors for the treatment of cancer” (Janssen Pharmaceutica NV, priority 2013, dated 2017):
# Columns and labels:
# [1] = target: T1, Recombinant Human NF-kappaB-Inducing Kinase (NIK/MAP3K14) (Homo sapiens, UniProt Q99558); test: Biological Assay A: inhibition of recombinant human NIK/MAP3K14 activity (MBP phosphorylation, Mesoscale); type: biochemical; conditions: averaged over all measurements on all batches; read-out: Biochemical (MSD MBP) IC50
# T1 sequence (Q99558 whole entry): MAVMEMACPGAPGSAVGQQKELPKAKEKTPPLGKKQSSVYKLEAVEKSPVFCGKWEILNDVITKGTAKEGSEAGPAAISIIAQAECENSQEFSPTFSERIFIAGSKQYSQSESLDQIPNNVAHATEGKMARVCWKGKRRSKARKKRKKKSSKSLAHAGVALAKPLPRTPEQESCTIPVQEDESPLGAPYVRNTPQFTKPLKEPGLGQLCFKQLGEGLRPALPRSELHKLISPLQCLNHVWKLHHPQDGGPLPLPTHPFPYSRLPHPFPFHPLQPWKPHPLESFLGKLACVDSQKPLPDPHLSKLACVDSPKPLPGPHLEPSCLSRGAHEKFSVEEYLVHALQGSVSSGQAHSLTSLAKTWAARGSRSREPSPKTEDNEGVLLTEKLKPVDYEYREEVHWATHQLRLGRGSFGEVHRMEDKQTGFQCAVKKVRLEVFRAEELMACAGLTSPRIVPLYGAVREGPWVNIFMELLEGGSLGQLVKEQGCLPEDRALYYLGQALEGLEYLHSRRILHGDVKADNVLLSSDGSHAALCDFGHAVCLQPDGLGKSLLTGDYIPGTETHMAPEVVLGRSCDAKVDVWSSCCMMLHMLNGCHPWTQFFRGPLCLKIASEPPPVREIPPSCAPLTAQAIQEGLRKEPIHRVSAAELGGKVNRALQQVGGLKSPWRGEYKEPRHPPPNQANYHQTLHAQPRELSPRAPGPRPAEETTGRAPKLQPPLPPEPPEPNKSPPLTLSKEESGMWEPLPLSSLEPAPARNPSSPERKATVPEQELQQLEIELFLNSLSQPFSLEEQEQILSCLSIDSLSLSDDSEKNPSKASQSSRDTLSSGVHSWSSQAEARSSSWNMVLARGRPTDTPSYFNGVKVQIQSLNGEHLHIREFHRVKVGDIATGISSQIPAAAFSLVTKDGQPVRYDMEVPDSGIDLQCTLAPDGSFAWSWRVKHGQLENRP
# Experimental: Inhibition of Recombinant Human NF-kappaB-Inducing Kinase (NIK/MAP3K14) Activity
# Assay buffer was 50 mM Tris pH 7.5 containing 1 mM EGTA (ethylene glycol tetraacetic acid), 1 mM DTT (dithiothreitol), 0.1 mM Na3VO4, 5 mM MgCl2, 0.01% Tween 20. Assays were carried out in 384 well Mesoscale high binding plates which had been coated with myelin basic protein (MBP) and blocked with bovine serum albumin to prevent non-specific protein binding. All compounds tested were dissolved in dimethyl sulfoxide (DMSO) and further dilutions were made in assay buffer. Final DMSO concentration was 1% (v/v) in assays. Incubations consisted of compound (1% DMSO in control and blank wells), 25 μM Adenosine-5′-triphosphate (ATP), and 10 nM NIK/MAP3K14 substituting enzyme with buffer in the blank wells. Incubations were carried out for 1 h at 25° C. and were followed by washing and sequential incubation with rabbit anti-phospho-MBP and anti-rabbit Ig Sulfotag antibody before reading bound Sulfotag on a Mesoscale Discovery. Signal obtained in the wells containing blank samples was subtracted from all other wells and IC50's were determined by fitting a sigmoidal curve to % inhibition of control versus Log10 compound concentration.
# [2] = target: T1, Recombinant Human NF-kappaB-Inducing Kinase (NIK/MAP3K14); test: Biological Assay A2: inhibition of auto-phosphorylation of recombinant human NIK/MAP3K14 (AlphaScreen); type: biochemical; conditions: auto-phosphorylation; averaged over all measurements on all batches; read-out: αscreen IC50
# Summary of the method: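 AlphaScreen readout of anti-phospho-IKK Ser176/180 signal after 1 h, 25° C. incubation of 0.2 nM GST-NIK with compound and 25 microM ATP (Tris pH 7.5 buffer, MgCl2, 1% DMSO final). IC50 from sigmoidal fit of blank-corrected % inhibition against Log10 concentration.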
# [3] = tested on: P-IKKα levels in L363 cells; test: Biological Assay B: effect of compounds on P-IKKα levels in L363 cells; type: cell-based; conditions: Homo sapiens, L-363, averaged values, read-out: IKKα Cellular IC50
# Experimental: Effect of Compounds on P-IKKα Levels in L363 Cells
# All compounds tested were dissolved in DMSO and further dilutions were made in culture medium. Final DMSO concentration was 1% (v/v) in cell assays. The human L363 cells (ATCC) were cultured in RPMI 1640 medium supplemented with GlutaMax and 10% fetal calf serum (PAA). Cells were routinely maintained at densities of 0.2×10^6 cells per ml-1×10^6 cells per ml at 37° C. in a humidified 5% CO2 atmosphere. Cells were passaged twice a week splitting back to obtain the low density. Cells were seeded in 96 well plates (Nunc 167008) at 2×10^6 per ml media in a volume of 75 μl per well plus 25 μl 1 μg/ml recombinant human B-cell activating factor BAFF/B1YS/TNFSF13B. Seeded cells were incubated at 37° C. in a humidified 5% CO2 atmosphere for 24 hr. Drugs and/or solvents were added (20 μl) to a final volume of 120 μl. Following 2 hr treatment plates were removed from the incubator and cell lysis was achieved by the addition of 30 μl 5× lysis buffer followed by shaking on a plate shaker at 4° C. for 10 min. At the end of this incubation lysed cells were centrifuged at 800×g for 20 min at 4° C. and the lysate was assessed for P-IKKα levels by sandwich immuno-assay carried out in anti-rabbit antibody coated Mesoscale plates. Within an experiment, the results for each treatment were the mean of 2 replicate wells. For initial screening purposes, compounds were tested using an 8 point dilution curve (serial 1:3 dilutions). For each experiment, controls (containing MG132 and BAFF but no test drug) and a blank incubation (containing MG132 and BAFF and 10 μM ADS125117, a test concentration known to give full inhibition) were run in parallel. The blank incubation value was subtracted from all control and sample values. To determine the IC50 a sigmoidal curve was fitted to the plot of % inhibition of control P-IKKα levels versus Log10 compound concentration.
# LP-1 cells = test: Biological Assay C: antiproliferative activity on LP-1 cells (CellTiter-Glo); type: cell-based, human; conditions: Homo sapiens, LP-1, 72 h, 72 hr treatment; averaged values
# Summary of the method: (§1)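 Luminescent ATP signal (CellTiter-Glo) measures growth of myeloma cells following a 72 h compound treatment. Values for the time-zero blank are subtracted, and each mean of duplicate wells is given as percentage of the no-drug control.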
# L-363 cells = test: Biological Assay C: antiproliferative activity on L-363 cells (CellTiter-Glo); type: cell-based, human; conditions: Homo sapiens, L-363, 72 h, 72 hr treatment; averaged values
# Summary of the method: as §1
# JJN-3 cells = test: Biological Assay C: antiproliferative activity on JJN-3 cells (CellTiter-Glo); type: cell-based, human; conditions: Homo sapiens, JJN-3, 72 h, 72 hr treatment; averaged values
# Summary of the method: as §1
IC50 [1] [nM],IC50 [2] [nM],IC50 [3] [nM],Structure (SMILES),EC50 (LP-1 cells) [nM],EC50 (L-363 cells) [nM],EC50 (JJN-3 cells) [nM]
25,21,36,COCCCn1cc(-c2ccnc(N)n2)c2cc(C#CC(C)(C)O)ncc21 [Compound 44],1700,400,250
5.7,24,84,CC(C)(O)Cn1cc(-c2ccnc(N)n2)c2cc(C#CC3(O)CCC3)ncc21 [Compound 42],16000,1500,330
150,360,5900,CNC(=O)CCn1cc(-c2ccnc(N)n2)c2cc(C#CC(C)(C)O)ncc21 [Compound 49],> 10000,> 10000,32000
45,57,370,CC(C)(O)Cn1cc(-c2ccnc(N)n2)c2cc(C#CC(C)(O)CC3CC3)ncc21 (stereo not drawn) [Compound 53],> 10000,> 10000,450
57,30,880,CC(C)(O)C#Cc1cc2c(-c3ccnc(N)n3)cn(CCS(C)(=O)=O)c2cn1 [Compound 67],> 10000,2400,2400
45,100,330,CC(C)(O)Cn1cc(-c2ccnc(N)n2)c2cc(C#CC(C)(O)C3CCC3)ncc21 (stereo not drawn) [Compound 37],> 10000,16000,3600
1.6,8,30,Cn1cc(-c2ccnc(N)n2)c2cc(C#CC(C)(C)O)ncc21 [Compound 5],320,94,160
43,110,530,CC(C)C(C)(O)C#Cc1cc2c(-c3ccnc(N)n3)cn(CC(C)(C)O)c2cn1 (stereo not drawn) [Compound 40],25000,4500,2300
220,190,290,CC(C)(O)Cn1cc(-c2ccnc(N)n2)c2cc(C#CC(C)(O)C(F)(F)F)ncc21 (stereo not drawn) [Compound 111],7500,1300,640
60,55,180,Cc1c(-c2ccnc(N)n2)c2cc(C#CC(C)(C)O)ncc2n1CC(C)(C)O [Compound 46],> 10000,3600,1100
130,47,360,CNc1nccc(-c2cn(CC(C)(C)O)c3cnc(C#CC(C)(C)O)cc23)n1 [Compound 68],16000,960,1500
8,27,300,CC(C)(O)C#Cc1cc2c(-c3ccnc(N)n3)cn(CCCN)c2cn1 [Compound 11],600,130,41
71,230,5000,CC(C)(O)Cn1cc(-c2ccnc(N)n2)c2cc(C#CC(C)(O)c3ccccn3)ncc21 (stereo not drawn) [Compound 59],> 10000,> 10000,17000
30,9,89,CC(C)(O)Cn1cc(-c2nc(N)ncc2Cl)c2cc(C#CC(C)(O)c3nccs3)ncc21 (stereo not drawn) [Compound 23],7700,9900,2500
21,56,370,CC(C)(O)Cn1cc(-c2ccnc(N)n2)c2cc(C#CC3(O)CCCCC3)ncc21 [Compound 38],> 10000,15000,1900

# Second part, the compound before the results:
Structure (SMILES),IC50 [1] [nM],IC50 [2] [nM],IC50 [3] [nM],EC50 (LP-1 cells) [nM],EC50 (L-363 cells) [nM],EC50 (JJN-3 cells) [nM]
CC(C)n1cc(-c2nc(N)ncc2Cl)c2cc(C#CC3(O)CCCC3)ncc21 [Compound 19],5.3,16,18,1200,430,160
CC(C)(O)C#Cc1cc2c(-c3ccnc(N)n3)cn(C3CNC3)c2cn1 [Compound 113],52,38,660,24000,4600,1400
COCCNC(=O)c1[nH]c2cnc(C#CC(C)(C)O)cc2c1-c1ccnc(N)n1 [Compound 52],29,33,99,30000,3200,1200
CC(C)(O)C#Cc1cc2c(-c3nc(N)ncc3Cl)cn(CCO)c2cn1 [Compound 8],3.3,1,8,2700,250,94
CC(C)n1cc(-c2nc(N)ncc2Cl)c2cc(C#CC(C)(C)O)ncc21 [Compound 16],4.3,2,7.3,92,57,35
CNc1ncc(Cl)c(-c2cn(CC(C)(C)O)c3cnc(C#CC(C)(C)O)cc23)n1 [Compound 58],430,700,110,2000,500,550
CCNc1nccc(-c2c[nH]c3cnc(C#CC(C)(C)O)cc23)n1 [Compound 48],65,16,260,3900,650,380
CC(C)(O)C#Cc1cc2c(-c3ccnc(N)n3)cn(CC3CCNCC3)c2cn1 [Compound 114],160,190,3800,5500,1500,1600
CC(C)(O)C#Cc1cc2c(-c3nc(N)ncc3C(F)(F)F)c[nH]c2cn1 [Compound 61],3.8,5,23,4600,340,260
CC(C)n1cc(-c2nc(N)ncc2Cl)c2cc(C#CC(C)(O)c3nccs3)ncc21 (stereo not drawn) [Compound 17],4.9,6,17,8000,810,460
CC(C)(O)C#Cc1cc2c(-c3ccnc(N)n3)cn(CC3CCOCC3)c2cn1 [Compound 55],84,180,140,11000,980,380
COCCn1cc(-c2nc(N)ncc2F)c2cc(C#CC(C)(C)O)ncc21 [Compound 54],27,17,21,330,59,89
COCCn1cc(-c2nc(N)ncc2C#N)c2cc(C#CC(C)(C)O)ncc21 [Compound 41],3.5,9,43,2200,290,240
Nc1nccc(-c2c[nH]c3cnc(C#CC4(O)CC4)cc23)n1 [Compound 9],1.1,2,37,1200,120,74
